Assays:
Rattus norvegicus [1] = experiment: Antiinflammatory activity in po dosed rat assessed as inhibition of carrageenan-induced paw edema; assay type: functional
[2] = Therapeutic index, ratio of ID50 for po dosed rat to ED50 for po dosed rat; assay type: organism-based; conditions: in vivo, read-out: TI
Rattus norvegicus [3] = experiment: Ratio of indomethacin ED50 to compound ED50 for po dosed rat assessed as inhibition of carrageenan-induced paw edema; assay type: functional
[4] = Gastrointestinal toxicity in po dosed rat assessed as induction of gastric irritation; assay type: organism-based, Stomach; conditions: in vivo, read-out: ID50 (the source's name)

## COc1ccc2c(c1)c(CC(=O)O)c(C)n2C(=O)c1ccc(Cl)cc1 [INDOMETHACIN]
Rattus norvegicus [1]
  ED50: 4.35 mg/kg
[2]
  selectivity ratio: 0.4

## O=C(O)Cc1ccc2c(c1)C(=O)c1ccccc1CO2 [ISOXEPAC]
Rattus norvegicus [1]
  ED50: 6.36 mg/kg
[2]
  selectivity ratio: 13

## O=C(O)Cc1ccc2c(c1)C(=O)c1occc1CO2
Rattus norvegicus [1]
  ED50: 33.3 mg/kg

## O=C(O)Cc1ccc2c(c1)C(=O)c1sccc1CO2
Rattus norvegicus [3]
  Ratio ED50: 1.3
Rattus norvegicus [1]
  ED50: 3.37 mg/kg
[4]
  TD50: 33.7 mg/kg
[2]
  selectivity ratio: 10

Source: ChEMBL document CHEMBL3244058, “Dibenz[b,e]oxepinalkanoic acids as nonsteroidal antiinflammatory agents. 2. Dihydro-10-oxofuro-and -thieno[3,2-c][1]benzoxepin-8-acetic acids” (J Med Chem, 1977)
